Measured values published in ChEMBL document CHEMBL1158714, “Communiols E-H: new polyketide metabolites from the coprophilous fungus Podospora communis” (J Nat Prod, 2005).
Active and inactive are the calls of the source.

Legend:
Assay type in all cases: functional, organism-based
Bacillus subtilis = assay: Antimicrobial activity against Bacillus subtilis ATCC 6051 at 200 ug/disk
Staphylococcus aureus = assay: Antimicrobial activity against Staphylococcus aureus ATCC 29213 at 200 ug/disk
Candida albicans = assay: Antimicrobial activity against Candida albicans ATCC 90029 at 200 ug/disk

Measured: Activity

CC[C@H](O)[C@@H]1C[C@H]2CC=C(CO)[C@H]2O1
inactive: all assays above

CC[C@@H]1O[C@H]1C[C@H]1CC=C(CO)[C@H]1O
inactive: all assays above

CC[C@H](O)[C@@H]1C[C@H]2CC[C@H](CO)[C@H]2O1
inactive: all assays above

CC[C@H](O)[C@@H]1C[C@@H](C/C=C/C=O)C(=O)O1
inactive: all assays above
